Measurements as given in patent US12037334B2, “Inhibitors of VAP-1” (ACUCELA INC., priority 2018, dated 2024).

Tests used:
Format in all cases: biochemical
rhVAP-1 = target: T1, rhVAP-1 (Homo sapiens, UniProt Q16853); experiment: VAP-1 Assay (fluorometric, Amplex Red/HRP, benzylamine substrate); details: rhVAP-1, benzylamine 50 μM, 30 minutes at 37° C., 10 mM NaHCO3 pH 7.4
T1 construct: purchased R&D Systems
T1 sequence (Q16853 1-763): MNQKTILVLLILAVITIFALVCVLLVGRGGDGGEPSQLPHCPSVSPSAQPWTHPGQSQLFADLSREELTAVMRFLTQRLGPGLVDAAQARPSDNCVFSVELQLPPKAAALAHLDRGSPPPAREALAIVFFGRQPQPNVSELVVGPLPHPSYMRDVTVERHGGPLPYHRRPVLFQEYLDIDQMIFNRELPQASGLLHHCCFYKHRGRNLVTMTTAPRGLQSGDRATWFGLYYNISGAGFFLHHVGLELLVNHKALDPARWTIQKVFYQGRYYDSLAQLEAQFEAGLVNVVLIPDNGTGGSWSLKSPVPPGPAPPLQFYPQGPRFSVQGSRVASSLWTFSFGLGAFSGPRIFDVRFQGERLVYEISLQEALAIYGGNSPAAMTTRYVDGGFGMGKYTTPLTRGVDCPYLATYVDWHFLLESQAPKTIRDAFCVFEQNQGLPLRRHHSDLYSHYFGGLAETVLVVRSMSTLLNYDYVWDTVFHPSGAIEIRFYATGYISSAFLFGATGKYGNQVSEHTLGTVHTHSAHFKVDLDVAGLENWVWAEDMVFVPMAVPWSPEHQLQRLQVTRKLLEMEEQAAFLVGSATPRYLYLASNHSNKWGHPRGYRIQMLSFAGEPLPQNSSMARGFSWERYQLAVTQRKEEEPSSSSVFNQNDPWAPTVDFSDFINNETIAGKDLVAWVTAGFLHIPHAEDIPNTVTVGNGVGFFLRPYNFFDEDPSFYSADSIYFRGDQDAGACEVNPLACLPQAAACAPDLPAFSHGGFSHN
Procedure: The capability of compounds described herein to inhibit the enzymatic activity of vascular adhesion protein-1 (VAP-1) was determined by fluorometric assay. The assay procedure provided by R&D Systems was modified slightly for use as an inhibitor screening assay. The assay measured the H2O2 generated from the oxidative deamination of benzylamine by rhVAP-1 by converting Amplex® Red to the fluorescent product, resorufin, via horseradish peroxidase (HRP) and H2O2. Reaction buffer was 10 mM NaHCO3, pH 7.4. A standard curve was prepared by serially diluting H2O2 in reaction buffer. A 10 μM solution of resorufin was prepared in reaction buffer and was dispensed to 2 wells. These wells served as positive control for maximum fluorescence. Reaction buffer was added to the individual wells so that the final volume in each well was 100 μL. Amplex Red was diluted to 1 mM in reaction buffer. A 10U stock of HRP was prepared in reaction buffer. A reaction cocktail was prepared by mixing equal parts 1 mM Amplex Red with 10U HRP with 3 parts reaction buffers. The reaction cocktail was added to the appropriate wells, so that that final concentration in the well was 0.05 mM Amplex Red and 0.5U HRP. A 200 μM solution of benzylamine was prepared in reaction buffer. Benzylamine was added to the appropriate wells so that the final concentration was 50 μM. Inhibitors were diluted in DMSO to 20× and distributed to the appropriate wells. UP-1207 served a positive control. rhVAP-1 was purchased from R&D Systems. The concentration used for each lot was determined so that the activity was equal to the first lot. Two wells were left blank as controls. The plate was incubated for 30 minutes at 37° C., protected from light under foil. The plate was read at 530/35 emission and 590/35 excitation. Data processing was performed using Excel and Prism software.
The capability of compounds described herein to inhibit the enzymatic activity of vascular adhesion protein-1 (VAP-1) was determined by fluorometric assay. The assay procedure provided by R&D Systems was modified slightly for use as an inhibitor screening assay. The assay measured the H2O2 generated from the oxidative deamination of benzylamine by rhVAP-1 by converting Amplex® Red to the fluorescent product, resorufin, via horseradish peroxidase (HRP) and H2O2. Amplex Red, HRP, Benzylamine, inhibitors (with DMSO as vehicle, 0.5% v/v) and rhVAP-1 were added to the wells. Assay was conducted in 10 mM NaHCO3, pH 7.4. A standard curve was prepared by serially diluting H2O2 in reaction buffer. The plate was incubated for 30 minutes at 37° C., protected from light under foil. The plate was read at 530/35 emission and 590/35 excitation. Data processing was performed using Prism software.

rhMAO-A = target: T2, rhMAO-A (Homo sapiens, UniProt P21397); experiment: MAO Assay (modified Promega MAO-Glo), MAO-A inhibition; details: substrate 10 μM, 1 hour at room temperature
T2 construct: purchased Sigma
T2 sequence (P21397 1-527): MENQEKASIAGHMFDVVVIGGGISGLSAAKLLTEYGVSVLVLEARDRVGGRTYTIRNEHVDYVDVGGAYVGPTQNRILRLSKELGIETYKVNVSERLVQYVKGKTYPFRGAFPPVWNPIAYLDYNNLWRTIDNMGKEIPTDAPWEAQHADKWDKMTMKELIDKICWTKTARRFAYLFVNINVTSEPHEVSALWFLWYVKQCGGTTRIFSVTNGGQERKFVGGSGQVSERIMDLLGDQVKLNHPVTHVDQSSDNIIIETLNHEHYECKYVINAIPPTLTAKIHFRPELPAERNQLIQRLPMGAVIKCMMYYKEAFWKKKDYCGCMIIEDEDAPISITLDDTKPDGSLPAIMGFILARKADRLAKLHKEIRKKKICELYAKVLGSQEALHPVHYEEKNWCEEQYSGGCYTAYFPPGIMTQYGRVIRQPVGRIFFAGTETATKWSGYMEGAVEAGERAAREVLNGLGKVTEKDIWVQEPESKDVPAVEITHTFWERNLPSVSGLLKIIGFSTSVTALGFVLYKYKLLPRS
Procedure: (§1) The capability of compounds described herein to inhibit MAO was determined using a modified Promega MAO-Glo™ assay kit. The substrate ((4S)-4,5-dihydro-2-(6-hydroxybenzothiazolyl)-4-thiazolecarboxylic acid) was converted by MAO to produce methyl ester luciferin. The luciferin was then converted by luciferase to produce oxyluciferin and light. The light was measured using a luminescence setting on the plate reader. A standard curve was prepared by serially diluting luciferin in reaction buffer. The standard kit reaction buffer was used—100 mM HEPES (pH 7.5), 5% glycerol. The substrate was dispensed into the wells so that the final concentration for MAO-A inhibition assay would be 10 μM and MAO-B inhibition assay would be 1 μM. Inhibitors were diluted in DMSO to 4× and distributed to the appropriate wells. Clorgyline and Deprenyl served as positive controls. rhMAO-A and rhMAO-B were purchased from Sigma. MAO-A or MAO-B was added to the appropriate wells. The plate was incubated for 1 hour, at room temperature with gentle shaking (90 rpm). The detection agent was added at equal volume (48 μL detection agent to 48 μL reaction). The plate was incubated for 20 minutes, at room temperature with gentle shaking (90 rpm). The plate luminescence was read. Data processing was performed using Prism software.
(§2) The capability of compounds described herein to inhibit MAO was determined using a modified Promega MAO-Glo™ assay. Test compounds, substrate and enzyme were incubated per manufacturer instructions for lhour, at room temperature with gentle shaking (90 rpm) before addition of detection agent. The detection agent was added at equal volume (48 μL detection agent to 48 μL reaction). The plate was incubated for 20 minutes, at room temperature with gentle shaking (90 rpm). The plate luminescence was read. Data processing was performed using Prism software.

rhMAO-B = target: T3, rhMAO-B (Homo sapiens, UniProt P27338); experiment: MAO Assay (modified Promega MAO-Glo), MAO-B inhibition; details: substrate 1 μM, 1 hour at room temperature
T3 construct: purchased Sigma
T3 sequence (P27338 1-520): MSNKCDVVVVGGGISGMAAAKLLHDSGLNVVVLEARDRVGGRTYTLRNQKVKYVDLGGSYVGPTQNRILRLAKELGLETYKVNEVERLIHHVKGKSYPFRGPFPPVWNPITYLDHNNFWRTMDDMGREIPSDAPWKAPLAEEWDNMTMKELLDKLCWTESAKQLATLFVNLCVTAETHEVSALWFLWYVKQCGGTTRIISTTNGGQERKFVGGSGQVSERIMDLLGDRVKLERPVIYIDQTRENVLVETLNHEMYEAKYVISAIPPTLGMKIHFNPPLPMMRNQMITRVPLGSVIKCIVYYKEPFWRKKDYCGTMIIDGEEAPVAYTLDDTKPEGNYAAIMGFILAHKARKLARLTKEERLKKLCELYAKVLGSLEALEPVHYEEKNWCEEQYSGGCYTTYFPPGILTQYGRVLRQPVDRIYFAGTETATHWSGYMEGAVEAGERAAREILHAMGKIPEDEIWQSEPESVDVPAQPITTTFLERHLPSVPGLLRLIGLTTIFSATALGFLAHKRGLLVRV
Procedure: as §1, §2

SMILES	IC50 (rhVAP-1)	IC50 (rhMAO-A; class symbols)	IC50 (rhMAO-B)	IC50 (rhMAO-A; cells printed as bound in μM)
CCCCc1cn2cc(OC/C(=C/F)CN)ccc2n1 [Example 1, (E)-2-(((2-butylimidazo[1,2-a]pyridin-6-yl)oxy)methyl)-3-fluoroprop-2-en-1-amine bis(4-methylbenzenesulfonate)]	< 100 nM	10 to 30 µM	1000 to 10000 nM	–
CCCCc1nc2cc(OC/C(=C/F)CN)ccn2n1 [Example 3, (E)-2-(((2-butyl-[1,2,4]triazolo[1,5-a]pyridin-7-yl)oxy)methyl)-3-fluoroprop-2-en-1-amine 4-methylbenzenesulfonate]	< 100 nM	10 to 30 µM	1000 to 10000 nM	–
CCCCc1cn2cc(OC/C(=C\F)CN)ccc2n1 [Example 5, (Z)-2-(((2-butylimidazo[1,2-a]pyridin-6-yl)oxy)methyl)-3-fluoroprop-2-en-1-amine 4-methylbenzenesulfonate]	< 100 nM	10 to 30 µM	1000 to 10000 nM	–
CCCCc1cn2nc(OC/C(=C/F)CN)ccc2n1 [Example 7, (E)-2-(((2-butylimidazo[1,2-b]pyridazin-6-yl)oxy)methyl)-3-fluoroprop-2-en-1-amine 4-methylbenzenesulfonate]	< 100 nM	–	100 to 1000 nM	> 50 µM
CCCCc1cc2cc(OC/C(=C/F)CN)ccn2n1 [Example 8, (E)-2-(((2-butylpyrazolo[1,5-a]pyridin-5-yl)oxy)methyl)-3-fluoroprop-2-en-1-amine bis(4-methylbenzenesulfonate)]	< 100 nM	1 to 10 µM	100 to 1000 nM	–
CCCCc1cn2cc(OC/C(=C/F)CNC(=O)OC(C)(C)C)cnc2n1 [Example 10, tert-butyl (E)-(2-(((2-butylimidazo[1,2-a]pyrimidin-6-yl)oxy)methyl)-3-fluoroallyl)carbamate]	< 100 nM	–	1000 to 10000 nM	> 50 µM

The remaining lines, values ahead:

IC50 (rhVAP-1)	IC50 (rhMAO-A; class symbols)	IC50 (rhMAO-B)	IC50 (rhMAO-A; cells printed as bound in μM)	SMILES
< 100 nM	10 to 30 µM	10000 to 30000 nM	–	CCCCc1cn2ccc(OC/C(=C/F)CN)cc2n1 [Example 2, (E)-2-(((2-butylimidazo[1,2-a]pyridin-7-yl)oxy)methyl)-3-fluoroprop-2-en-1-amine 4-methylbenzenesulfonate]
< 100 nM	10 to 30 µM	100 to 1000 nM	–	CCCCc1nc2ccc(OC/C(=C/F)CN)cn2n1 [Example 4, (E)-2-(((2-butyl-[1,2,4]triazolo[1,5-a]pyridin-6-yl)oxy)methyl)-3-fluoroprop-2-en-1-amine 4-methylbenzenesulfonate]
< 100 nM	10 to 30 µM	100 to 1000 nM	–	CCCCc1cc2ccc(OC/C(=C/F)CN)cn2n1 [Example 6]
< 100 nM	1 to 10 µM	1000 to 10000 nM	–	NC/C(=C/F)COc1ccc2nc(C3CCCC3)cn2c1 [Example 9, (Z)-2-(((2-cyclopentylimidazo[1,2-a]pyridin-6-yl)oxy)methyl)-3-fluoroprop-2-en-1-amine 4-methylbenzenesulfonate]
